Measured values reported in US8691865B2 (AbbVie Inc., priority 2008, dated 2014).

These compounds were tested against human Cav2.2 (Homo sapiens, UniProt Q00975) (assay: Assessment of calcium channel activity using FLIPR (Ca2+ influx in IMR32 cells)). Settings: not given.
Format: cell-based
How it was run: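 Human neuroblastoma IMR32 cells were seeded at 1−1.2×10^5 cells/well and cultured 48 h at 37 °C before FLIPR calcium influx measurement. Percent inhibition at each concentration was calculated against the no-inhibitor signal, and IC50 came from sigmoidal dose-response fits.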

Chain of human Cav2.2 (Q00975 whole entry): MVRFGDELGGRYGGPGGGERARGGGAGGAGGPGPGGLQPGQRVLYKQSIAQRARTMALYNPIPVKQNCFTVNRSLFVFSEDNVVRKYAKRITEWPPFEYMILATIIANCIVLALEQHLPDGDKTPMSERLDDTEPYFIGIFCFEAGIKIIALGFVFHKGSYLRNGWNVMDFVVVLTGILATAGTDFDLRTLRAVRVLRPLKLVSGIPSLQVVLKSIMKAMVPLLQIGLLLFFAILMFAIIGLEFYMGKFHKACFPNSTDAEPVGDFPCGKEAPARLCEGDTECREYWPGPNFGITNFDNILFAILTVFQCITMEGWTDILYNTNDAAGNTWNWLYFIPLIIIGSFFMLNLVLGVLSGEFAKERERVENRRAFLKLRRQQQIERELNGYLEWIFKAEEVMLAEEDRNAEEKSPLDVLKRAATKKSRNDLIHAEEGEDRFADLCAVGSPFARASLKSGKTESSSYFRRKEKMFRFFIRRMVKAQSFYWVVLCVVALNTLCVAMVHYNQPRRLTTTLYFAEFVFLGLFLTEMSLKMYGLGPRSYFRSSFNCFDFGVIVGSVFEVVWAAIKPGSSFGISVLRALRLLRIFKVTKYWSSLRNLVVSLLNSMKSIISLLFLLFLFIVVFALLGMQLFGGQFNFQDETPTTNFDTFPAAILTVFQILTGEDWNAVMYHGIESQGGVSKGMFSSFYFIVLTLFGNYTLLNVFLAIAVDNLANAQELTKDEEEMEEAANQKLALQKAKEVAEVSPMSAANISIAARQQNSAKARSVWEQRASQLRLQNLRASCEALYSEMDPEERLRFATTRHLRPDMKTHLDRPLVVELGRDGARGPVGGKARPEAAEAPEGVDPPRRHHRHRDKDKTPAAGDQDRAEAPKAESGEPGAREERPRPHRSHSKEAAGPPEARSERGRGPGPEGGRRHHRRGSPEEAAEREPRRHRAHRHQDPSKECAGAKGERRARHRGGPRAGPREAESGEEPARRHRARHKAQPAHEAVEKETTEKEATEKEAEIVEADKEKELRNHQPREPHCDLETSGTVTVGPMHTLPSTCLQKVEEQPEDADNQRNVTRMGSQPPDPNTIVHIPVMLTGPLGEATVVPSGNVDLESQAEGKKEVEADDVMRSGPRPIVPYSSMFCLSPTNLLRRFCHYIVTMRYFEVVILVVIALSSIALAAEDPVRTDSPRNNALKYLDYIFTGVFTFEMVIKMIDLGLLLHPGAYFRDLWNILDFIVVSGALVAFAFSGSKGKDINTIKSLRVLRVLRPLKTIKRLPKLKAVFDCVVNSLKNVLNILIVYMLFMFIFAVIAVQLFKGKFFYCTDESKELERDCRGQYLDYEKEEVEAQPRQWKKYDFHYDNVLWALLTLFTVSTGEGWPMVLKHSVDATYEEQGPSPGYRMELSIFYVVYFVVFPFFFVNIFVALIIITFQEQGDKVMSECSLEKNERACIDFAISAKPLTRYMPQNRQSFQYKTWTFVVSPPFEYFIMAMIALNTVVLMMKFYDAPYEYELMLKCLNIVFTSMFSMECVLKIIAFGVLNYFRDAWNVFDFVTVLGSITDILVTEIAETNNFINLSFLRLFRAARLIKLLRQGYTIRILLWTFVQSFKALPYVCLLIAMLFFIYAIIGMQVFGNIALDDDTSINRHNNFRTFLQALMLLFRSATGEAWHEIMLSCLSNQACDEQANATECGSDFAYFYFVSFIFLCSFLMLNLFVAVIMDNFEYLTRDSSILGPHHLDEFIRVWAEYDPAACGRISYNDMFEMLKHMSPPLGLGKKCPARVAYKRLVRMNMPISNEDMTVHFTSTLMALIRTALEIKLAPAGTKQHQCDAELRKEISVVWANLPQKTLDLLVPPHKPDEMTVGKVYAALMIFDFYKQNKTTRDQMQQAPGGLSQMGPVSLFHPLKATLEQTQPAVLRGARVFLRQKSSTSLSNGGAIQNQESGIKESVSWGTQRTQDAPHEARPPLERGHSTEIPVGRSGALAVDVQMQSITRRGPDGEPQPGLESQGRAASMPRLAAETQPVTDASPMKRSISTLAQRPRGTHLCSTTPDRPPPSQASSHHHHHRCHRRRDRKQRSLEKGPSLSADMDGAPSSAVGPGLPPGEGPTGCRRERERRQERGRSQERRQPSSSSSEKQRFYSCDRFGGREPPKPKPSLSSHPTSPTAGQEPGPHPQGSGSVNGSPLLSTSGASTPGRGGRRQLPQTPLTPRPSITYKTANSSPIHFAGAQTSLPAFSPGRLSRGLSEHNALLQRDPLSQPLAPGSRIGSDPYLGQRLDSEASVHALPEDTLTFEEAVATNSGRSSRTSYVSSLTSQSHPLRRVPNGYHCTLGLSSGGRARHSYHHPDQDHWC
Chain of human Cav2.2 (P54289 25-956 partner limits assumed): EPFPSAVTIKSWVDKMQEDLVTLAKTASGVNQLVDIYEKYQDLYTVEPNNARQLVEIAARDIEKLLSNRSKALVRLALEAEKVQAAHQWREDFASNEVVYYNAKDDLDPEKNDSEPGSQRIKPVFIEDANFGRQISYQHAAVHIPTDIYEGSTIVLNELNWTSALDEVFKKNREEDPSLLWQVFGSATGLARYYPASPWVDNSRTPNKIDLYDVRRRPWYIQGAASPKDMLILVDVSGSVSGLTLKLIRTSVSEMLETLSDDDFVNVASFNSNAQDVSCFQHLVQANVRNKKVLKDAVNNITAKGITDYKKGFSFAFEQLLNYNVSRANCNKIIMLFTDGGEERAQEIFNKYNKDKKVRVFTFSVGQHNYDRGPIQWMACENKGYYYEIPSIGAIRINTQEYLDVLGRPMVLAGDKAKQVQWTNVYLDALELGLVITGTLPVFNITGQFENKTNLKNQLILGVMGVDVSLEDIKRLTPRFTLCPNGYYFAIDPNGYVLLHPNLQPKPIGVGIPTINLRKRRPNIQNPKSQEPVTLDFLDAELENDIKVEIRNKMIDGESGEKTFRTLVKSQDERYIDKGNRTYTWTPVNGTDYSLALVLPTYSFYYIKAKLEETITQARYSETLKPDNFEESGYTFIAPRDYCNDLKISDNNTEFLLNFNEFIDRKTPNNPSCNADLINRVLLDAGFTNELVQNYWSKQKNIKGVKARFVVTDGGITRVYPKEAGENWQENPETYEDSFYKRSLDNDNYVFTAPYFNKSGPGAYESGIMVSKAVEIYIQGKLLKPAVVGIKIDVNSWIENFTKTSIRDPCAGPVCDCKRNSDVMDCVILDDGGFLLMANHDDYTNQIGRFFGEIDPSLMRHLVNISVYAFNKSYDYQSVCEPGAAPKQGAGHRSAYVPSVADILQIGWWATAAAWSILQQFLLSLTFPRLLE
Chain of human Cav2.2 (P54289 957-1103 partner limits assumed): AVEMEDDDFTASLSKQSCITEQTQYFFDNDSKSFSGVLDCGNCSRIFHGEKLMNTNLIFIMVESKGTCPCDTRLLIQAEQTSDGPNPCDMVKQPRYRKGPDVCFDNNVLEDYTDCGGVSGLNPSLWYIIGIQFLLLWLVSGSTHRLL
Chain of human Cav2.2 (P54284 whole entry partner): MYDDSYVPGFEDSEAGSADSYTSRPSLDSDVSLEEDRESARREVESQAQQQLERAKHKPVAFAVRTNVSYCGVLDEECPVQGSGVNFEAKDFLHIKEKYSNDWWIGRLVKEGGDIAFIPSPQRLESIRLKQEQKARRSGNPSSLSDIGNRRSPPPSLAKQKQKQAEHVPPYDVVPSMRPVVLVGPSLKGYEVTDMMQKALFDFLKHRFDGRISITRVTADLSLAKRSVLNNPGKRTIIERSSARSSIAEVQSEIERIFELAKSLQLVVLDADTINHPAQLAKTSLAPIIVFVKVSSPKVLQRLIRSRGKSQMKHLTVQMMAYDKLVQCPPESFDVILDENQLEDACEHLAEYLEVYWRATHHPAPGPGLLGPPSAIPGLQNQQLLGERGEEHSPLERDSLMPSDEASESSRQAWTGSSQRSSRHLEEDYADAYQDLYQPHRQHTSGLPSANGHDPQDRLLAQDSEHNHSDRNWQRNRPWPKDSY

Row | Compound | IC50 [µM]
1 | CC(C)C[C@@H](C(=O)N[C@@H]1CC[C@H]2CN(Cc3ccccc3)C[C@H]21)N1CCCC1 [Example 250, (2S)-N-[(3aS,4R,6aR)-2-benzyloctahydrocyclopenta[c]pyrrol-4-yl]-4-methyl-2-pyrrolidin-1-ylpentanamide] | > 30
2 | CN[C@H]1CC[C@@H]2CN(S(=O)(=O)c3ccc(C(F)(F)F)cc3)C[C@@H]21 [Example 301, (3aR,4S,6aS)-N-methyl-2-{[4-(trifluoromethyl)phenyl]sulfonyl}octahydrocyclopenta[c]pyrrol-4-amine] | > 9
3 | CC(C)(C)[C@H](N)C(=O)N[C@H]1CC[C@@H]2CN(c3cccc(C(F)(F)F)n3)C[C@@H]21 [Example 591, 3-methyl-N-{(3aR,4S,6aS)-2-[6-(trifluoromethyl)pyridin-2-yl]octahydrocyclopenta[c]pyrrol-4-yl}-L-valinamide] | 0.5
4 | CCC[C@H](NC)C(=O)N[C@@H]1CC[C@@H]2CN(Cc3ccccc3)C[C@@H]21 [Example 363, N^1-[(3aR,4R,6aS)-2-benzyloctahydrocyclopenta[c]pyrrol-4-yl]-N^2-methyl-L-norvalinamide] | > 30
5 | CC(C)C[C@H](NC(=O)OC(C)(C)C)C(=O)N[C@@H]1CC[C@@H]2CN(Cc3cccc(C(F)(F)F)c3)C[C@@H]21 (stereo in doubt) [Example 137, N^2-(tert-butyloxycarbonyl)-N^1-{(3aR*,4R*,6aS*)-2-[3-(trifluoromethyl)benzyl]octahydrocyclopenta[c]pyrrol-4-yl}-L-leucinamide] | 0.65
6 | FC(F)(F)c1cccc(N2C[C@H]3CC[C@H](NCc4cc5ccncc5s4)[C@H]3C2)n1 [Example 721, (3aR,4S,6aS)-N-(thieno[2,3-c]pyridin-2-ylmethyl)-2-[6-(trifluoromethyl)pyridin-2-yl]octahydrocyclopenta[c]pyrrol-4-amine] | 0.87
7 | CC(C)N[C@H]1CC[C@@H]2CN(c3cccc(C(F)(F)F)n3)C[C@@H]21 [Example 609, (3aR,4S,6aS)-N-isopropyl-2-[6-(trifluoromethyl)pyridin-2-yl]octahydrocyclopenta[c]pyrrol-4-amine] | 1.45
8 | CC(C)(C)C[C@H](NCC1CC1)C(=O)N[C@H]1CC[C@@H]2CN(c3ccc(C(F)(F)F)cn3)C[C@@H]21 [Example 478, N^2-(cyclopropylmethyl)-4-methyl-N^1-{(3aR,4S,6aS)-2-[5-(trifluoromethyl)pyridin-2-yl]octahydrocyclopenta[c]pyrrol-4-yl}-L-leucinamide] | 0.46
9 | CC(C)(C)NC(=O)N[C@H]1CC[C@@H]2CN(c3cccc(OC(F)(F)F)c3)C[C@@H]21 [Example 779, 1-tert-butyl-3-{(3aR,4S,6aS)-2-[3-(trifluoromethoxy)phenyl]octahydrocyclopenta[c]pyrrol-4-yl}urea] | 1.86
10 | FC(F)(F)c1cccc(N2C[C@H]3CC[C@H](NCc4ccc5nsnc5c4)[C@H]3C2)n1 [Example 732, (3aR,4S,6aS)-N-(2,1,3-benzothiadiazol-5-ylmethyl)-2-[6-(trifluoromethyl)pyridin-2-yl]octahydrocyclopenta[c]pyrrol-4-amine] | 0.56
11 | CCCC(C(=O)NC1CCC2CN(Cc3ccc(F)cc3)CC21)N(C)C(=O)OC(C)(C)C (single isomer, unassigned) [Example 315] | 5.36
12 | CN[C@@H](CO)C(=O)N[C@H]1CC[C@@H]2CN(c3ccc(C(F)(F)F)cc3)C[C@@H]21 [Example 749, N^2-methyl-N-{(3aR,4S,6aS)-2-[4-(trifluoromethyl)phenyl]octahydrocyclopenta[c]pyrrol-4-yl}-L-serinamide] | > 3
13 | O=C(N[C@H]1CC[C@@H]2CN(c3ccc(C(F)(F)F)cn3)C[C@@H]21)[C@@H]1C[C@@H](F)CN1 [Example 780, (4R)-4-fluoro-N-{(3aR,4S,6aS)-2-[5-(trifluoromethyl)pyridin-2-yl]octahydrocyclopenta[c]pyrrol-4-yl}-L-prolinamide] | 14
14 | FC(F)(F)c1cccc(N2C[C@H]3CC[C@H](NCc4cc5cc(Cl)ccc5[nH]4)[C@H]3C2)n1 [Example 665, (3aR,4S,6aS)-N-[(5-chloro-1H-indol-2-yl)methyl]-2-[6-(trifluoromethyl)pyridin-2-yl]octahydrocyclopenta[c]pyrrol-4-amine] | 2.99
15 | O=C(N[C@H]1CC[C@H]2CN(Cc3cccc(OC(F)(F)F)c3)C[C@H]21)C(C1CCCCC1)C1CCCCC1 [Example 63, 2,2-dicyclohexyl-N-{(3aS,4S,6aR)-2-[3-(trifluoromethoxy)benzyl]octahydrocyclopenta[c]pyrrol-4-yl}acetamide] | 0.51
16 | Cc1ccc(CN[C@H]2CC[C@@H]3CN(c4cccc(C(F)(F)F)n4)C[C@@H]32)cc1 [Example 649, (3aR,4S,6aS)-N-(4-methylbenzyl)-2-[6-(trifluoromethyl)pyridin-2-yl]octahydrocyclopenta[c]pyrrol-4-amine] | 0.41
17 | O=C(CC(O)C(F)(F)F)N[C@H]1CC[C@@H]2CN(c3cccc(C(F)(F)F)n3)C[C@@H]21 (stereo partly drawn) [Example 586, 4,4,4-trifluoro-3-hydroxy-N-{(3aR,4S,6aS)-2-[6-(trifluoromethyl)pyridin-2-yl]octahydrocyclopenta[c]pyrrol-4-yl}butanamide] | 2.56
18 | O=C(N[C@H]1CC[C@H]2CN(Cc3cccc(C(F)(F)F)c3)C[C@H]21)C(c1ccc(F)cc1)c1ccc(F)cc1 (relative stereo) [Example 136, 2,2-bis(4-fluorophenyl)-N-{(3aS*,4S*,6aR*)-2-[3-(trifluoromethyl)benzyl]octahydrocyclopenta[c]pyrrol-4-yl}acetamide] | 0.64
19 | CN[C@@H](CC(C)C)C(=O)N[C@H]1CC[C@@H]2CN(c3ccc(SC(F)(F)F)cc3)C[C@@H]21 [Example 707, N^2-methyl-N-[(3aR,4S,6aS)-2-{4-[(trifluoromethyl)thio]phenyl}octahydrocyclopenta[c]pyrrol-4-yl]-L-leucinamide] | 7.26
20 | CN[C@@H](CC(C)C)C(=O)N[C@H]1CC[C@@H]2CN(c3ccccc3OC(F)(F)F)C[C@@H]21 [Example 699, N^2-methyl-N-{(3aR,4S,6aS)-2-[2-(trifluoromethoxy)phenyl]octahydrocyclopenta[c]pyrrol-4-yl}-L-leucinamide] | 0.65

Same assay, conditions: read-out: IC50 (μM) or percent inhibition (* indicates 3 minute incubation, otherwise 60 minute); IC50; 60 minute pre-incubation with compound; IMR32 cells, 80 mM KCl depolarization

Row | Compound | IC50 [µM]
21 | CC(C)[C@@H](CC(=O)N[C@H]1CC[C@@H]2CN(S(=O)(=O)c3cccc(C(F)(F)F)c3)C[C@@H]21)N(C)C [Example 498, (3R)-3-(dimethylamino)-4-methyl-N-((3aR,4S,6aS)-2-{[3-(trifluoromethyl)phenyl]sulfonyl}octahydrocyclopenta[c]pyrrol-4-yl)pentanamide] | 1.59
22 | CN[C@H](CC(C)C)C(=O)N[C@H]1CC[C@H]2CN(Cc3cccc(C(F)(F)F)c3)C[C@H]21 (relative stereo) [Example 160, N^2-methyl-N^1-{(3aS*,4S*,6aR*)-2-[3-(trifluoromethyl)benzyl]octahydrocyclopenta[c]pyrrol-4-yl}-D-leucinamide] | 3.78
23 | N^2-isopropyl-4-methyl-N^1-{(3aR,4S,6aS)-2-[2-(methylsulfonyl)pyrimidin-5-yl]octahydrocyclopenta[c]pyrrol-4-yl}-L-leucinamide [Example 493] | 5.08
24 | CN[C@@H](CC(C)C)C(=O)N[C@@H]1CC[C@H]2CN(Cc3cccc(C(F)(F)F)c3)C[C@H]21 [Example 166, N^2-methyl-N^1-{(3aS,4R,6aR)-2-[3-(trifluoromethyl)benzyl]octahydrocyclopenta[c]pyrrol-4-yl}-L-leucinamide] | 2.72
25 | CCC[C@H](NC1CCCC1)C(=O)N[C@H]1CC[C@@H]2CN(S(=O)(=O)c3ccc(C(F)(F)F)cc3)C[C@@H]21 [Example 506, N^2-cyclopentyl-N^1-((3aR,4S,6aS)-2-{[4-(trifluoromethyl)phenyl]sulfonyl}octahydrocyclopenta[c]pyrrol-4-yl)-L-norvalinamide] | 1.71
26 | CC(C)C[C@H](C(=O)N1C[C@@H]2CC[C@@H](NC(=O)C(C3CCCCC3)C3CCCCC3)[C@@H]2C1)N(C)C [Example 217, 2,2-dicyclohexyl-N-[(3aS,4R,6aR)-2-(N,N-dimethyl-D-leucyl)octahydrocyclopenta[c]pyrrol-4-yl]acetamide] | 1.28
27 | CC(C)(C)[C@@H](C(=O)N[C@@H]1CC[C@H]2CN(Cc3ccccc3)C[C@H]21)c1ccccc1 [Example 32, (2R)-N-[(3aS,4R,6aR)-2-benzyloctahydrocyclopenta[c]pyrrol-4-yl]-3,3-dimethyl-2-phenylbutanamide] | 1.42
28 | CC(C)C[C@H](NCC(C)(C)C)C(=O)N[C@H]1CC[C@@H]2CN(Cc3ccccc3)C[C@@H]21 [Example 244, N^1-[(3aR,4S,6aS)-2-benzyloctahydrocyclopenta[c]pyrrol-4-yl]-N^2-neopentyl-L-leucinamide] | 9.11
29 | O=C(CCCCC(c1ccc(F)cc1)c1ccc(F)cc1)N[C@@H]1CC[C@H]2CN(Cc3cccc(C(F)(F)F)c3)C[C@H]21 (relative stereo) [Example 140, 6,6-bis(4-fluorophenyl)-N-{(3aS*,4R*,6aR*)-2-[3-(trifluoromethyl)benzyl]octahydrocyclopenta[c]pyrrol-4-yl}hexanamide] | 0.62
30 | CC(C)C[C@H](NC(=O)OC1CCCC1)C(=O)N[C@@H]1CC[C@H]2CN(Cc3cccc(C(F)(F)F)c3)C[C@H]21 [Example 179, cyclopentyl(S)-4-methyl-1-oxo-1-((3aS,4R,6aR)-2-(3-(trifluoromethyl)benzyl)octahydrocyclopenta[c]pyrrol-4-ylamino)pentan-2-ylcarbamate] | 0.89
31 | CCC[C@@H](C(=O)N[C@@H]1CC[C@H]2CN(Cc3ccccc3)C[C@H]21)N(C)C(=O)OC(C)(C)C [Example 233, tert-butyl(S)-1-((3aS,4R,6aR)-2-benzyloctahydrocyclopenta[c]pyrrol-4-ylamino)-1-oxopentan-2-yl(methyl)carbamate] | 2.8
